Consider four compounds from the NIST ThermoML archive (doi:10.1016/j.fluid.2013.12.002).

For the data set the following is noted: Liquid, Ebulliometric method (Recirculating still).

Structures are written as SMILES. ± gives the expanded uncertainty stated by the source.

Regarding `c1ccccc1` [benzene], under “353.26 K”, the “vapor or sublimation pressure” value is recorded as 101.33 ± 1.4 kPa.
Turning to `Cc1ccccc1` [toluene], where the note is “383.81 K”, the “vapor or sublimation pressure” value worked out at 101.33 ± 1.4 kPa.
On to `O=Cc1ccccc1` [benzaldehyde], for which the “vapor or sublimation pressure” value by setting is: (377.63 K) 10 ± 0.15 kPa; (396.65 K) 20 ± 0.31 kPa; (408.67 K) 30 ± 0.45 kPa.
Take `O=CC=Cc1ccccc1` [(E)-3-phenyl-2-propanal]: the “vapor or sublimation pressure” value reads like this: (442.84 K) 10 ± 0.15 kPa; (463.15 K) 20 ± 0.33 kPa; (475.83 K) 30 ± 0.49 kPa.

As a reminder, the vapor or sublimation pressure is the pressure of vapour in equilibrium with the condensed phase.
